Laboratory results as given in US7582415B2, “Rapid detection of replicating cells” (priority 2001, dated 2009).
Values after ≈ are worked out from the molar mass of the structure shown.

How the values were obtained:
[1] = tested on: E. coli MG1655 (sensitive strain); assay: microbe, parasite or virus in culture; conditions: Escherichia coli, MG1655, 5 h, read-out: zone of inhibition, segment of the E-test strip (minimal inhibitory concentration)
Method: This minimal inhibitory concentration is based on the visualization of zones with no growth, called the zone of inhibition. The zone of inhibition is traditionally measured by the naked eye after an overnight growth.
Experimental Methods: The strains, used in the example and described in Example 13, were diluted to 10^6 CFU/ml and plated on TSA media. […] The microcolonies growing on or near the test strip were imaged using microcolony autofluorescence and non-magnified large area imaging as in previous examples. After imaging, the plates were allowed to incubate overnight.

[2] = tested on: E. coli MG1655/pLafr I (resistant strain); assay: E-test strip susceptibility test with autofluorescent microcolony imaging; type: cell-based; conditions: E-test strip 0.016-256 μg tetracycline, TSA, 5 hours at 37° C.
Method: After imaging, the plates were allowed to incubate overnight.

CN(C)[C@@H]1C(O)=C(C(N)=O)C(=O)[C@@]2(O)C(O)=C3C(=O)c4c(O)cccc4[C@@](C)(O)[C@H]3C[C@@H]12 [tetracycline]
MIC [1]: ~2 µg/mL (≈ 4.5 µM) | segment of the E-test strip near which the strain grows [2]: ~256 µg/mL
